Assay results published in patent US20140335019A1, “COMPOSITIONS AND METHODS FOR THE TREATMENT AND ANALYSIS OF NEUROLOGICAL DISORDERS” (THE REGENTS OF THE UNIVERSITY OF MICHIGAN, priority 2011, published 2014).
“Also recorded” adds a separate entry of the source.

Tests used:
[1] = tested on: human SK-N-BE(2)-M17 (M17) neuroblastoma cells; details: for concentration with no toxicity: human, 24 h
Experimental: (§2) Preliminary cytotoxicity studies of the compounds in human SK-N-BE(2)-M17 (M17) neuroblastoma cells were carried out using a standard colorimetric assay for measuring cell growth (i.e., MTT assay; MTT=3-(4,5-dimethylthiazol-2-yl)-2,5-diphenyltetrazolium bromide).

[2] = solution speciation by UV-vis variable-pH titrations; assay type: physicochemical; details: physiological pH (ca. 7.4)
[3] = target: Aβ monomer pretreated with ZnCl2 (Homo sapiens, UniProt P05067); test: NMR studies of compound with Aβ monomer pretreated with ZnCl2; assay type: binding
Text: (§1) While an understanding of the mechanism is not necessary to practice the invention and the invention is not limited to any particular mechanism of action, these observations imply that the compounds may target metal ions associated with Aβ species.

Aβ aggregates = Aβ aggregates (Homo sapiens, UniProt P05067); test: ELISA of interaction with Aβ aggregates; assay type: binding; details: similar to ThT
Text: as §1

[4] = tested on: Aβ species in human AD brain tissue homogenates; test: treatment of human AD brain tissue homogenates, Western blotting with 6E10; assay type: biochemical; details: 24 h treatment, frontal cortex homogenates
Text: The frontal cortex section of the human AD brain was selected because it generally contains high amounts of Aβ aggregates. […] Also, using these compounds, similar to in vitro disaggregation studies with synthetic Aβ peptide above, perturbing metal-Aβ interaction is contemplated to find use for disassembling Aβ aggregates in brain tissue.

M17 cells = test: cytotoxicity of metal (CuII or ZnII)-associated Aβ species with compounds, MTT assay; assay type: cell-based, human; details: Aβ 20 μM, metal ions 20 μM, compound 40 μM, 24 h
Experimental: Then, the cells were incubated for 24 h.
as §2

[5] = tested on: Tg2576 hAPP-transgenic mice; test: in vivo activity in Tg2576 hAPP-transgenic mice (4G8 and Congo red staining of brain slices); details: 1 mg/kg oral gavage every two days for two months; relative to control vehicle; p<0.01
Experimental: During the development of embodiments of the technology provided herein, experiments were conducted to verify the efficacy of pharmaceutical compositions according to the technology by testing in a murine model. Pharmaceutical compositions comprising compounds described herein were administered every two days at 1 mg/kg (0.1 ml/10 g body weight) to four female Tg2576 hAPP-transgenic mice (18 months old) for two months (total 30 times in 60 days) by oral gavage.
Efficacy was evaluated after drug administration. Tissue slices […] long were prepared from cerebrums of Tg2576 mice by a procedure comprising rapid freezing and cutting using a cryostat. To verify the degree of amyloid beta accumulation, the brain tissue slices were stained by APP/Aβ17-24-immunospecific antibody 4G8. In addition, to identify the amount of mature amyloid plaques that were generated in the presence of Apolipoprotein E (ApoE), sample were stained with Congo red.

Aβ species = details: cited from earlier work
[6] = in vivo biodistribution of radiolabeled compound; design: species or system C57B1/6 mice
Experimental: Healthy female C57B1/6 mice (n=18) were administered by bolus intravenous injection with [^3H]-3b (2.5 μCi) each. The mice were divided into 3 groups of 6. Each group was sacrificed at 10 min, 60 min and 120 min post injection. Biodistribution was carried out by harvesting blood from cardiac puncture and tissue (liver, heart, kidneys, lungs, small intestine, muscle, spleen, feces, bladder, bone and brain). The brain was divided into four different sections (cerebellum, frontal cortex, parietal cortex and striatum). The tissue was digested and counted for accumulated activity.

Chain of Aβ monomer pretreated with ZnCl2 (P05067 672-711 limits assumed): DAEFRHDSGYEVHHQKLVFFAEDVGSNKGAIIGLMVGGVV
Chain of Aβ aggregates (P05067 672-711 limits assumed): as above

## CN(C)c1ccc(N=Cc2ccccn2)cc1 [2b, N^1,N^1-dimethyl-N^4-(pyridin-2-ylmethylene)benzene-1,4-diamine]
[1]
  cytotoxicity compared with CQ: less cytotoxic than CQ
  concentration with no toxicity: up to 100 μM

## CN(C)c1ccc(NCc2ccccn2)cc1 [3b, N^1,N^1-Dimethyl-N^4-(pyridin-2-ylmethyl)benzene-1,4-diamine]
[2]
  main species in solution: neutral form
[3]
  complex formation with ZnII-pretreated Aβ monomer: a ternary complex containing Aβ, ZnII, and the molecule may be generated
Aβ aggregates
  interaction with Aβ aggregates (ELISA): interacted with Aβ aggregates
[4]
  Aβ species visualized by Western blotting with 6E10: more gel-permeable and lower MW Aβ species
M17 cells
  toxicity induced by metal-Aβ: capable of reducing metal-Aβ neurotoxicity; also recorded: noticeably diminished toxicity
[5]
  Aβ immunoreactivity (4G8 staining): reduced
  congophilicity (Congo red staining): reduced
[1]
  concentration with no toxicity: up to 40 μM

## CN(C)c1ccc(/C=C/c2ccc(I)cc2)cc1 [p-1-stilbene, (E)-4-(4-iodostyryl)-N,N-dimethylaniline]
Aβ species
  binding affinity to Aβ species: strong binding affinity

## CN(C)c1ccc(-c2cn3cc(I)ccc3n2)cc1 [IMPY, 4-(6-iodoimidazo[1,2-α]pyridin-2-yl)-N,N-dimethylaniline]
Aβ species
  binding affinity to Aβ species: strong binding affinity

## CN(C)c1ccc(NCc2ccccn2)cc1 [[^3H]-3b]
[6]; bolus intravenous injection, 2.5 μCi, 10, 60 and 120 min post injection
  BBB crossing: can cross the BBB
[6]; cerebellum, frontal cortex, parietal cortex, striatum, 10, 60, 120 min
  brain uptake: relatively consistent within the time points chosen
